Measured values: article PMC3914206

Tests used:
Assay type in all cases: binding
Design in all cases: KINOMEscan: ABL1(F317L)-phosphorylated / KINOMEscan: ABL1(H396P)-nonphosphorylated / KINOMEscan: ABL1(H396P)-phosphorylated / KINOMEscan: ABL1(M351T)-phosphorylated / KINOMEscan: ABL1(T315I)-phosphorylated / KINOMEscan: ABL1-nonphosphorylated / KINOMEscan: ABL1-phosphorylated / KINOMEscan: ACVR2A / KINOMEscan: ACVR2B / KINOMEscan: ADCK3 / KINOMEscan: ADCK4 / KINOMEscan: AKT1 / KINOMEscan: AKT3 / KINOMEscan: ALK / KINOMEscan: ARK5 / KINOMEscan: AURKA / KINOMEscan: AURKC / KINOMEscan: BIKE / KINOMEscan: BMPR1A / KINOMEscan: BMPR1B / KINOMEscan: BMX / KINOMEscan: BRK / KINOMEscan: BRSK1 / KINOMEscan: BRSK2 / KINOMEscan: CAMK1 / KINOMEscan: CAMK1D / KINOMEscan: CAMK1G / KINOMEscan: CAMK2A / KINOMEscan: CAMK2B / KINOMEscan: AAK1 / KINOMEscan: CAMK2D / KINOMEscan: CAMK2G / KINOMEscan: ABL1(F317I)-nonphosphorylated / KINOMEscan: ABL1(F317I)-phosphorylated / KINOMEscan: ABL1(F317L)-nonphosphorylated: unit: % Ctrl
Settings in all cases: Compound Concentration 10 µM
[1] = molecular target: T1, panel of 442 kinases (Homo sapiens, UniProt P27037)
T1 construct: purchased KINOMEscan
T1 sequence (P27037 20-513): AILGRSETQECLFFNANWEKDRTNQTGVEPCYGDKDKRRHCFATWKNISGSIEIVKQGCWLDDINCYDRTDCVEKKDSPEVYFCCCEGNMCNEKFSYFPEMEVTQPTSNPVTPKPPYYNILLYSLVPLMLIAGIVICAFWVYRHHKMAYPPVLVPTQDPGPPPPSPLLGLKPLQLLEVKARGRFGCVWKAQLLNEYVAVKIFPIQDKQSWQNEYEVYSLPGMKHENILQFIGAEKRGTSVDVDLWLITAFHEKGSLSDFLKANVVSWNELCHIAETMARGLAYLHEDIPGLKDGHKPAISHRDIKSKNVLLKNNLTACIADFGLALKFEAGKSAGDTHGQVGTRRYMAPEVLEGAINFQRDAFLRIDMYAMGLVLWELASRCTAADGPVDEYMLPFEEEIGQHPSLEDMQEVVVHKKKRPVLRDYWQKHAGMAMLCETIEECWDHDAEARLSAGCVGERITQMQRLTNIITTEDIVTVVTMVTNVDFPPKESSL
Text: (§1) We assessed the selectivity of members of this scaffold using the KINOMEscan methodology across a near comprehensive panel of 442 kinases [[18,27]].

[2] = molecular target: T2, panel of 442 kinases (Homo sapiens, UniProt Q09013)
T2 construct: purchased KINOMEscan
T2 sequence (Q09013 1-629): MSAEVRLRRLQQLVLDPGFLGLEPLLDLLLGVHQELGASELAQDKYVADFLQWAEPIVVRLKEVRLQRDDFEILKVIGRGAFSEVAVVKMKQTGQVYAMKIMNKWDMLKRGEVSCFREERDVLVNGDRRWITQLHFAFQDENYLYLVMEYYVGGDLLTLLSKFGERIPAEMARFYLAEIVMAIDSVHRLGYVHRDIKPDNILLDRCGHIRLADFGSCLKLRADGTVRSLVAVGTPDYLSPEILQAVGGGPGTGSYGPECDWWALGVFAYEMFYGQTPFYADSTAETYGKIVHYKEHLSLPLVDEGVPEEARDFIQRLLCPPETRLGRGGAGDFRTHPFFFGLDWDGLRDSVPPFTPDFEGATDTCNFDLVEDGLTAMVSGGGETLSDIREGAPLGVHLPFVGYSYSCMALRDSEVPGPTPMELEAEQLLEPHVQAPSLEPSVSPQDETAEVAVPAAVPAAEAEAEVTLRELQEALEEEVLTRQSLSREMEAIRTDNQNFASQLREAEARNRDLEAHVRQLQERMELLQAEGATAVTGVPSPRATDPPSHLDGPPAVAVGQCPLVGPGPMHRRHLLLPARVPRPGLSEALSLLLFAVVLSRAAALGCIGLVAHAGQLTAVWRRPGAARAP
Text: as §1

[3] = molecular target: T3, panel of 442 kinases (Homo sapiens, UniProt Q16816)
T3 construct: purchased KINOMEscan
T3 sequence (Q16816 whole entry): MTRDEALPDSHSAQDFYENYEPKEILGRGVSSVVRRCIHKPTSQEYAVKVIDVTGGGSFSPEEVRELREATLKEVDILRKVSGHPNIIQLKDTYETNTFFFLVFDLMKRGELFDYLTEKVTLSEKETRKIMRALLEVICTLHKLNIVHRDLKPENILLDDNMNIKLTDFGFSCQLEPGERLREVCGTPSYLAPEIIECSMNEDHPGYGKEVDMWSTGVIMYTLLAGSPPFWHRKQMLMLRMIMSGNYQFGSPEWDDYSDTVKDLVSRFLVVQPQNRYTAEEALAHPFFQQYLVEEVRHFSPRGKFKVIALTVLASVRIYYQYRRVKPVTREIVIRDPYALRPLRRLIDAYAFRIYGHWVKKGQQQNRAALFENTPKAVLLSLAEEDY
Text: as §1

Structure (SMILES)	KINOMEscan: ACVR2A [1]	KINOMEscan: DMPK [2]	KINOMEscan: PHKG1 [3]
COc1cc(C(=O)N2CCC(N3CCN(C)CC3)CC2)ccc1Nc1ncc2c(n1)N(C)c1ccccc1C(=O)N2C [15 (LRRK2-IN-1)]	100	100	54
COc1cc(C(=O)N2CCC(N3CCN(C)CC3)CC2)ccc1Nc1ncc2c(n1)N1CCc3cccc(c31)C(=O)N2C [Compound 24]	71	85	75
COc1cc(C(=O)N2CCC(N3CCN(C)CC3)CC2)ccc1Nc1ncc2c(n1)N(C1CCCC1)c1ccccc1C(=O)N2C [Compound 25, 11-cyclopentyl-2-((2-methoxy-4-(4-(4-methylpiperazin-1-yl)piperidine-1-carbonyl)phenyl)amino)-5-methyl-5H-benzo[e]pyrimido[5,4-b][1,4]diazepin-6(11H)-one]	93	96	100
CCOc1cc(C(=O)N2CCC(N3CCN(C)CC3)CC2)ccc1Nc1ncc2c(n1)N(C1CCCC1)c1ccccc1C(=O)N2C [Compound 26]	95	100	100
